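These data come from cells grown in 96-well plates and exposed to compound for 48 hours at five concentrations. The concentration for 50% growth inhibition is given as GI50. TGI denotes the concentration required for complete inhibition of growth.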
Key:
Experiment in all cases: NCI tumour cell line growth inhibition, 48 h
NCI-H460 lung = tested on: NCI-H460 lung
OVCAR-5 ovarian = tested on: OVCAR-5 ovarian
SNB-19 CNS = tested on: SNB-19 CNS
SF-295 CNS = tested on: SF-295 CNS
RXF 393 renal = tested on: RXF 393 renal
SF-268 CNS = tested on: SF-268 CNS
HCC-2998 colon = tested on: HCC-2998 colon
OVCAR-8 ovarian = tested on: OVCAR-8 ovarian
U251 CNS = tested on: U251 CNS
SN12C renal = tested on: SN12C renal

Work on `COc1cc2cc(Oc3ccc(NC(=O)Nc4ccc(F)c(C(F)(F)F)c4)cc3)c(C)nc2cc1OCCN1CCCCC1` yielded a GI50 (NCI-H460 lung) of 1.89 µM, a TGI (NCI-H460 lung) of 3.6 µM and a GI50 (OVCAR-5 ovarian) of 1.72 µM. The TGI (OVCAR-5 ovarian) was 3.1 µM, the GI50 (SNB-19 CNS) was 1.76 µM and the TGI (SNB-19 CNS) was 3.29 µM. The GI50 (SF-295 CNS) was 1.8 µM and the TGI (SF-295 CNS) was 3.29 µM.
In the case of `CCOC(=O)c1ncoc1[C@H]1COC(C)(C)O1`, the TGI (NCI-H460 lung) is reported as > 100 µM, the TGI (RXF 393 renal) is reported as > 100 µM and the TGI (OVCAR-5 ovarian) is reported as > 100 µM. For the same compound, the TGI (SF-268 CNS) was > 100 µM, the TGI (SNB-19 CNS) was > 100 µM and the TGI (HCC-2998 colon) was > 100 µM. For the same compound, the TGI (OVCAR-8 ovarian) was > 100 µM, the TGI (U251 CNS) was > 100 µM and the TGI (SF-295 CNS) was > 100 µM. The TGI (SN12C renal) was > 100 µM.
Work on `COc1cc(C2CC(c3cccc(Nc4ccncc4)c3)=NN2c2cc(Cl)cc(Cl)c2)cc(OC)c1OC` (stereo unspecified) yielded a GI50 (NCI-H460 lung) of 1.73 µM, a TGI (NCI-H460 lung) of 3.28 µM and a GI50 (SF-268 CNS) of 1.61 µM. The TGI (SF-268 CNS) was 3.21 µM, the GI50 (SNB-19 CNS) was 1.61 µM and the TGI (SNB-19 CNS) was 3.02 µM. The GI50 (HCC-2998 colon) was 1.56 µM, the TGI (HCC-2998 colon) was 2.98 µM and the GI50 (SN12C renal) was 1.66 µM. The TGI (SN12C renal) was 3.14 µM.
For `COc1ccc(/C=C2\CN(C(=O)CCN3CCC(=NO)CC3)C/C(=C\c3ccc(OC)cc3)C2=O)cc1`, the GI50 (NCI-H460 lung) was 2.63 µM, the TGI (NCI-H460 lung) was 6.74 µM and the GI50 (RXF 393 renal) was 1.68 µM. For the same compound, the TGI (RXF 393 renal) was 3.15 µM, the GI50 (OVCAR-5 ovarian) was 1.83 µM and the TGI (OVCAR-5 ovarian) was 3.92 µM. For the same compound, the GI50 (SF-268 CNS) was 2.84 µM, the GI50 (SNB-19 CNS) was 2.58 µM and the TGI (SNB-19 CNS) was 7.55 µM. It also gave a GI50 (HCC-2998 colon) of 1.85 µM, a TGI (HCC-2998 colon) of 3.51 µM and a GI50 (OVCAR-8 ovarian) of 3.22 µM. It also gave a TGI (OVCAR-8 ovarian) of 16 µM, a GI50 (U251 CNS) of 1.74 µM and a TGI (U251 CNS) of 3.47 µM. The GI50 (SF-295 CNS) was 2.77 µM, the TGI (SF-295 CNS) was 7.69 µM and the GI50 (SN12C renal) was 2.27 µM. The TGI (SN12C renal) was 5.92 µM.
`CC(=O)Oc1ccccc1[C@H]1CC(=O)C[C@H](c2ccccc2OC(C)=O)C12C(=O)c1ccccc1C2=O` was tested, and the TGI (NCI-H460 lung) was 60.3 µM, the TGI (RXF 393 renal) was 93.4 µM and the TGI (OVCAR-5 ovarian) was > 100 µM. The TGI (SNB-19 CNS) was > 100 µM, the TGI (HCC-2998 colon) was 85.4 µM and the TGI (OVCAR-8 ovarian) was > 100 µM. For the same compound, the TGI (U251 CNS) was > 100 µM, the TGI (SF-295 CNS) was > 100 µM and the TGI (SN12C renal) was > 100 µM.

From PubChem BioAssay (NCI)
